{"source": "patent US8937154B2", "about": "“Stabilized therapeutic small helical antiviral peptides” (priority 2006, dated 2015)", "key": {"[1]": {"assay": "Circular dichroism, secondary structure in solution", "format": "physicochemical", "procedure": "We used circular dichroism (CD) to characterize the secondary structure of NYAD-1 and CAI in the uncomplexed state in solution. CD spectra were obtained on a Jasco J-715 Spectropolarimeter (Jasco Inc.) at 20° C. using the standard measurement parameters in Tris-HCl buffer (20 mM Tris, pH 8.0) in the presence of 1-15% (v/v) acetonitrile at a final concentration of 125-500 μM. In all the samples, the final concentrations of peptides and salt were always the same, and the spectra were corrected by subtracting the CD spectra of the appropriate reference solvent. Percent α-helix was calculated from molar ellipticity value at 222 nm.\nThe CD spectra were measured at 25° C. in 1×PBS in the presence of 1-20% (v/v) acetonitrile at a final concentration of peptide of 100 μM.\nWe used CD spectroscopy to determine the secondary structure characteristics of the stapled peptide NYAD-36. The corresponding linear peptide, NYAD-41, was used as control."}, "[2]": {"molecular_target": "T1, C-terminal CA (C-CA) of capsid (Human immunodeficiency virus type 1 group M subtype B, UniProt P04591)", "T1 construct": "targeting the C-terminal CA (C-CA) of capsid", "conditions": "estimated, read-out: dissociation constant (Kd); cited from earlier work"}, "N-terminal CA (N-CA)": {"molecular_target": "N-terminal CA (N-CA) (Human immunodeficiency virus type 1 group M subtype B, UniProt P04591)", "conditions": "read-out: affinity (Kd) to N-terminal CA (N-CA); cited from earlier work"}, "HIV-1 IIIB [3]": {"system": "HIV-1 IIIB", "format": "cell-based", "quoted_text": "The inhibitory activity of the constrained peptide described in Example 1 on infection by laboratory-adapted HIV-1 strains was determined as described in Jiang et al. (1991)."}, "HIV-1 IIIB [4]": {"system": "HIV-1 IIIB", "assay": "Western blot of p24 and p55 after treatment of HIV-1 IIIB infected MT-2 cells", "format": "cell-based", "conditions": "anti-p24 mAb, graded concentrations, vs positive untreated control", "procedure": "Control cells were uninfected MT-2 or infected and untreated MT-2. Following overnight incubation the culture supernatant was completely removed and replaced with fresh medium. On the fourth day post-infection cells and virus supernatants were harvested. The supernatants were filtered and ultra-centrifuged through a 20% sucrose cushion for 2 hr at 27,000 rpm with a SW28 rotor to concentrate the viral particles. Viral pellets were slowly re-suspended and lysed. Cells were collected and processed for protein extraction. […] Proteins were then visualized by Western Blot and immuno-detected with HIV-1 anti-p24 gag mAb.\nSame amounts of viral and cellular proteins were immunodetected with an anti-p24 mAb."}, "CTDM184A/W185A": {"molecular_target": "CTDM184A/W185A (Human immunodeficiency virus type 1 group M subtype B, UniProt P04591, M317A/W316A)", "assay": "Isothermal titration calorimetry", "design": "species or system HIV-1", "conditions": "ITC, 25 mM sodium phosphate buffer (pH 7.3), single-binding model", "procedure": "In a typical experiment, the ITC injection syringe was loaded with 625 μM CTDM184A/W185A protein dissolved in the dialysis buffer. […] Typically titrations consisted of 27 injections of 10 μl into the calorimetric cell, with 240-s equilibration between injections. The thermodynamic parameters were obtained and data were analysed using MicroCal Origin 7.0 software."}, "HIV-IIIB": {"system": "HIV-IIIB", "assay": "Viral re-infection assay: infectivity of virions released by treated HIV-1 infected MT-2 cells", "format": "cell-based", "procedure": "The infectivity potential of the virions released by HIV-1 infected MT-2 cells treated with different concentrations of small stapled peptides. […] Control cells were untreated or treated with 1 ug/ml of AMD3100 (CXCR-4 receptor inhibitor). Following overnight incubation the medium was completely removed and replaced with fresh medium. On the fourth day post-infection the supernatants were collected. One aliquot of each sample was mixed 1:1 with a solution of 5% Triton X-100 for p24 quantification, and stored at 4° C., another aliquot was immediately frozen at −80° C. and used to compare the infectivity of the viral particles released by treated cells to the viral particles released by untreated cells. Following p24 quantification by sandwich-ELISA MT-2 cells were infected with viral samples normalized for the p24 content to calculate the TCID50. Following overnight incubation ¾ of the medium containing the inoculum was replaced with fresh medium. On the fourth day post infection supernatants were collected for p24 quantification and the TCID50 was calculated by the Spearman-Karber statistical method.\nTherefore, to infect MT-2 cells we used the maximum quantities of supernatants possible."}}, "note": "Where a SMILES comes first, the peptide text is derived from it. Bridges are numbered along the chain shown (N, C = ends). [ ]: non-standard residue; d: D form. R8 = C=CCCCCCC[C@@](C)(N)C(=O)O; S5 = C=CCCC[C@](C)(N)C(=O)O", "data": [{"molecule": "ITFEDLLDYYGP [CAI]", "values": [{"measurement": "secondary structure in solution by CD", "setting": "[1]; 20° C., Tris-HCl buffer pH 8.0, 1-15% acetonitrile", "value": "random coil structure"}, {"measurement": "Kd", "setting": "[2]", "value": "~15", "unit": "µM"}]}, {"molecule": "Cc1ccc(NC(=O)NCCSCc2ccc(CN(C)C)o2)cc1Cl", "note": "[CAP-1]", "values": [{"measurement": "Kd", "setting": "N-terminal CA (N-CA)", "value": "~800", "unit": "µM"}]}, {"molecule": "CC[C@H](C)[C@H](N)C(=O)N[C@@H](CO)C(=O)N[C@@H](Cc1ccccc1)C(=O)N[C@]1(C)CCCCCC/C=C\\CCC[C@@](C)(C(=O)N[C@@H](CCC(=O)O)C(=O)N[C@@H](CO)C(=O)NCC(=O)N[C@@H](CO)C(N)=O)NC(=O)[C@H](Cc2ccc(O)cc2)NC(=O)[C@H](Cc2ccc(O)cc2)NC(=O)[C@H](CC(=O)O)NC(=O)[C@H](CC(C)C)NC(=O)[C@H](CC(C)C)NC(=O)[C@H](CCC(=O)O)NC1=O", "note": "[NYAD-36] (H-ISF[R8]ELLDYY[S5]ESGS-NH2; staple (Z) 4-11)", "values": [{"measurement": "IC50", "setting": "HIV-1 IIIB [3]", "value": "1.5 ± 0.17", "unit": "µM"}, {"measurement": "secondary structure by CD", "setting": "[1]; 25° C., 1×PBS, 1-20% acetonitrile, 100 μM peptide", "value": "α-helical structure"}, {"measurement": "solubility", "value": "< 100", "unit": "µM"}, {"measurement": "p24 and p55 levels in the cellular preparation", "setting": "HIV-1 IIIB [4]", "value": "the same decrease was not detected"}, {"measurement": "p24 and p55 levels in the viral preparation (viral lysates)", "setting": "HIV-1 IIIB [4]", "value": "dose-dependent decrease"}, {"measurement": "ΔH", "setting": "CTDM184A/W185A", "value": "−8.4 (±0.4) Kcal/mol"}, {"measurement": "viral infectivity of particles released by treated cells", "setting": "HIV-IIIB; 6.8 μM", "value": "very little to no viral infectivity"}, {"measurement": "viral infectivity of particles released by treated cells", "setting": "HIV-IIIB; 13.5 μM", "value": "very little to no viral infectivity"}, {"measurement": "infectivity respect to the control", "setting": "HIV-IIIB; about 7 μM", "value": 7.7, "unit": "%"}]}]}
